According to patent publication US20230146870A1, “METHOD TO QUANTIFY AFFINITY AND SELECTIVITY OF SMALL MOLECULES FOR PROTEINS IN LIVING CELLS” (Ohio State Innovation Foundation, priority 2021, published 2023):
Several values for one entry are separate records, joined by “and”; a condition that tells them apart may be missing. Equal entries are not always repeated. Entries after “also recorded” stand apart in the source; their conditions may differ. Where two headings read alike, the source gives them in different places.

Experiments:
[1] = cited from earlier work
[2] = system: Taxol binding site in living cells; settings: previously reported; read-out: Ki by confocal microscopy; cited from earlier work
[3] = system: microtubules (taxane binding site) in living HeLa cells; assay: Competition binding assay with PB-GABA-Taxol in living HeLa cells (cellular Ki); settings: for Ki: read-out: cellular Ki, PB-GABA-Taxol 1.5 μM, verapamil 100 μM, 37° C., 4% FBS, 3 h
Procedure: In this assay the cellular Kd was measured by varying the concentration of the fluorescent probe added to cells at equilibrium as established by kinetic assays of probe uptake. Total binding of this probe to specific and non-specific sites in cells in the presence of the efflux inhibitor verapamil was determined by flow cytometry. Non-specific binding was quantified separately by addition of excess paclitaxel with the probe under the same conditions. Subtraction of the linear non-specific binding contribution from the total binding curve was used analyze specific binding of the probe to tubulin of microtubules. Measurement of this cellular dissociation constant under equilibrium conditions further allowed conversion of the half-maximal inhibitory concentration (IC50) of unlabeled compounds into cellular inhibitory constants using an adaptation of the Cheng-Prusoff equation^44 for competitive modulators (Ki) or the allosteric equation^45 for non-competitive modulators (Kb and the cooperativity factor α) as implemented by GraphPad Prism.

[4] = biological target: albumin (Homo sapiens, UniProt P02768); settings: cited from earlier work
Chain of albumin (P02768 25-609, species assumed): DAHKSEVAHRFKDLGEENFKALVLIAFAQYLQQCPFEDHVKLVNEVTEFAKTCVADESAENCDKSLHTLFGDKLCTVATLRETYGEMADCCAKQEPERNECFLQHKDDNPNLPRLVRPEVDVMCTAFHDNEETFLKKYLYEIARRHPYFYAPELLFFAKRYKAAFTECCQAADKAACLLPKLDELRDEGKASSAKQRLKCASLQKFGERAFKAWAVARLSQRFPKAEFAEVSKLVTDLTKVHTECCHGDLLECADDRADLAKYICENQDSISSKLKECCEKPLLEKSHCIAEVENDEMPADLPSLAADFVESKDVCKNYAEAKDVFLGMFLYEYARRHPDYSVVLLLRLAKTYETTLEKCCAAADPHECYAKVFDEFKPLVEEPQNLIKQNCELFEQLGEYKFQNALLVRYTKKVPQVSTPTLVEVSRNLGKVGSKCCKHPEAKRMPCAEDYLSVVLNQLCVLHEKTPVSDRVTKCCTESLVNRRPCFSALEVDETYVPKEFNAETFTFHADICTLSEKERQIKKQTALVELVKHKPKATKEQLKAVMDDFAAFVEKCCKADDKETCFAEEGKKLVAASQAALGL

[5] = biological target: crosslinked / purified microtubules; settings: previously reported; read-out: biochemical Ki for microtubules; cited from earlier work
[6] = system: microtubule network of HeLa cells (mScarlet-α-Tubulin); assay: Confocal microscopy of HeLa cells transfected with mScarlet-α-Tubulin; type: cell-based; settings: 1 h at 37° C.
Procedure: (FIG. 28C) Characterization of fluorescent microtubule phenotypes in HeLa cells transiently transfected with mScarlet-a-Tubulin and treated with the microtubule modulators (1 h at 37° C.). […] Scale bars=10 μm.
Cells were washed with PBS before treatment with PB-GABA-Taxol (100 nM) and (±)-verapamil hydrochloride (100 μM), with or without paclitaxel (10 μM) as a competitor, in phenol red-free DMEM supplemented with 10% FBS. Cells were incubated at 37° C. for 3 h prior to imaging by confocal microscopy. For experiments using HeLa cells transfected with mScarlet-α-tubulin, transient transfection was performed using a Invitrogen Lipofectamine 3000 Transfection kit (Thermo, L3000-075). Transfection used a 1× dose of lipid in OptiMEM (4% FBS) for 18 hours before washing of cells with PBS and treatment with the microtubule modulator for 1 h at 37° C.

[7] = biological target: T1, rat EGFP-N2-PKCγ (Rattus norvegicus, UniProt P63319); assay: Confocal video microscopy of PKCγ trafficking in HEK293 cells; type: cell-based; settings: 33 at 1 μM, after 10 min
T1 construct: transiently transfected with DNA encoding the full-length rat PKCγ-EGFP; host or cells: HEK293
From the text: Blue fluorescence of 33 is shown in the right panels (Ex. 405 nm, Em. 410-495 nm, Gain 50), green fluorescence of transiently transfected EGFP-N2-PKCγ protein is shown in the middle panels (Ex. 488 nm, Em. 500-650 nm, Gain 700), and DIC images are shown in the left panels. Trafficking of PKCγ-mEGFP protein to membranes induced by 33 can be observed Images were acquired with a Leica SP8 microscope (63× objective). Scale bar=25 μm.
It appears that this is due to efflux of this compound from cells mediated by efflux transporters such as Pgp. To explore this idea, two-color confocal video microscopy was used. Briefly, HEK293 cells were transiently transfected with commercially available plasmid DNA encoding rat PKCγ fused to GFP (EGFP-N2-PKCγ, Addgene Plasmid #21204).^84 The HEK293 cell line is known to expresses multiple efflux transporters including Pgp (MDR1/ABCB1).^85 The fluorescence of GFP was monitored by excitation with a 488 nm laser and emission collected between 500-650 nm. […] In addition, the cell morphology was recorded using differential interference contrast microscopy (DIC). The localization of the fluorescent probe and the GFP fusion protein was recorded using video confocal microscopy immediately after treatment of transfected cells with 33. […]

[8] = system: HEK293 cells; assay: Viability of HEK293 cells during probe treatment by flow cytometry; type: cell-based; settings: 33 at 1 μM, verapamil 0, 25 or 100 μM, 1 h
Procedure: FIGS. 14A and 14B show quantification of fluorescence (FIG. 14A) and viability (FIG. 14B) upon treatment of HEK293 cells with compound 33 (1 μM) and verapamil (0, 25 or 100 μM) for 1 h. Total [DMSO]=0.2%. Error bars represent SD (N=3). Statistical significance analyzed by one-way ANOVA (GraphPad Prism 9). **, P<0.01; ****, P<0.0001. Samples were analyzed with a Beckman Coulter Cytoflex flow cytometer. (Ex. 405 nm/Em. […]). […] Compound 33 is non-toxic under these conditions.
FIGS. 16A-16D show quantification of non-specific binding and cell viability after treatment for 1 h at 37° C. with compound 33 (2-fold serial dilution from 5 μM) and verapamil (75 μM) in the presence of different competitors (PMA or non-fluorescent PB-carbamate 8, at 0, 5 and 10 μM). Total [DMSO]=0.3%. (FIG. 16A) Parental HEK293 cells analyzed after treatment with 33 in the presence or absence of PMA or compound 8. […] Samples were analyzed with a Beckman Coulter Cytoflex flow cytometer and gated to analyze living cells (Ex. 405 nm; Em. 450/45 nm).
The efflux of this fluorescent probe was next studied by flow cytometry. […] The blue fluorescent signal (405 nm laser) of HEK293 cells overexpressing green fluorescent full-length PKCγ-EGFP was elucidated (the median protein concentration was determined to be ˜5.0 μM as measured by flow cytometry by comparison with Spherotech rainbow bead standards as described herein). […]

[9] = system: Jurkat cells; assay: Cellular viability assay, Jurkat lymphocytes, 48 h, flow cytometry (Example 2); type: cell-based; settings: Homo sapiens, Jurkat, read-out: toxicity towards Jurkat cells, IC50
Procedure: The impact of membrane transporters on the toxicity profile of 49 was also studied.
Jurkat lymphocytes were seeded into a 96-well plate in fresh complete medium at 2.5×10^5 cells/mL and 200 μL per well. All compounds were serial diluted in DMSO and added to complete media to achieve a 1:1000 dilution factor (0.10% DMSO in each well). […] The total cell-count for each well was determined by flow cytometry and staining with propidium iodide was used to identify populations of live cells (only dead cells are stained by PI). Counts of viable cells for each treatment, determined in triplicate, were used to generate dose-response curves. These curves were fitted with non-linear regression using an inhibitor vs. response variable slope […] model (GraphPad Prism 9) to determine IC50 values.

[10] = biological target: T2, C1A-C1A-EYFP (PKCγ) (UniProt P63319); assay: Cellular binding by flow cytometry, HEK293 cells expressing C1A-C1A-EYFP (PKCγ); settings: verapamil 100 μM
T2 construct: apparent Kd; other: verapamil 100 μM, 90 min, 37° C., DMEM high glucose, 4% FBS; half time (t1/2) of cellular fluorescence; other: 33 at 5 μM, verapamil 100 μM, room temperature; fused on or other part: EYFP at the C-terminus; the C1A module is present twice in one chain
From the text: The dissociation constant can be defined as the ratio of koff divided by kon. This value is also the concentration where the ligand occupies 50% of the receptor.^94 Kd is only meaningful when equilibrium is reached, where the ligand-receptor complex is formed at the same rate as it dissociates into free ligand and receptor (FIG. 15). This binding equilibrium is established when essentially no further change in the amount of bound complex is observed over time. To evaluate the time needed for equilibration, we treated HEK293 cells that overexpress C1A-C1A-EYFP (PKCγ) with 33 (0 and 5 μM) in the presence or absence of verapamil (100 μM) and cellular fluorescence was measured by flow cytometry as a function of time (FIG. 18A). […] This optimization was used to establish a 90 min equilibration period for further assay optimization.
The presence of fetal bovine serum (FBS) in the culture media also influenced the binding by sequestering the free ligand. The assay conditions were finalized using HEK293 cells incubated with the probe in the presence of verapamil for 90 min at 37° C. in DMEM media (high glucose, 4% FBS).

[11] = biological target: T3, mouse PKCβI-mVenus (Mus musculus, UniProt P68404); assay: Apparent cellular Kd by flow cytometry, HEK293 cells overexpressing PKCβI-mVenus (Example 2); type: binding
T3 construct: eight plasmids encoding full length mouse PKC isozymes fused to; expressed in transfected cells; host or cells: HEK293
T3 sequence (P68404 whole entry, the tested form may be a part): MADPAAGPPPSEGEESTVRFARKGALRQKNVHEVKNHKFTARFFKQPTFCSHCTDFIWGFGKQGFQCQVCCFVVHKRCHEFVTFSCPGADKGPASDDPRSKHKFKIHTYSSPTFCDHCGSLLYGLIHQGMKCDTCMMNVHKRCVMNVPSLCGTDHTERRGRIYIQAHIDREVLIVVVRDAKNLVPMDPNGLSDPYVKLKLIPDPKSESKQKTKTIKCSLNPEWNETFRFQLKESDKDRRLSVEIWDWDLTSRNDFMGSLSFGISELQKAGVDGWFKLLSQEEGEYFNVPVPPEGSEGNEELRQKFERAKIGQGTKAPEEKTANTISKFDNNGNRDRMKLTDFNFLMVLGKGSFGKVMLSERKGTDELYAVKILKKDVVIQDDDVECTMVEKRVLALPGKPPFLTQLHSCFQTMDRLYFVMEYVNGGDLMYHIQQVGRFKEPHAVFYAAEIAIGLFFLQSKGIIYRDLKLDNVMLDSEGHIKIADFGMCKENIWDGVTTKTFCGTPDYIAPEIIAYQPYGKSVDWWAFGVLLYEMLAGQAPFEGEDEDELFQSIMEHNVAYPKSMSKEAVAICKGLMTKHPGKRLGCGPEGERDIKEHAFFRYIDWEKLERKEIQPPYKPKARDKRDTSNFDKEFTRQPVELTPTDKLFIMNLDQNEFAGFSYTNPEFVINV
Procedure: The apparent Kd values of these fluorescent probes were measured using different PKC isozymes (e.g., PKCβI, FIGS. 20A-20D). HEK293 cells were transfected to overexpress PKCβ-mVenus and treated with probes in the presence of verapamil (100 μM) as an inhibitor of efflux.

[12] = biological target: C1 domain of human PKD (purified C1AB domain) (Homo sapiens, UniProt Q15139); assay: [3H]PDBu competition assay with purified C1AB domain of PKD; type: binding
Chain of C1 domain of human PKD (purified C1AB domain) (Q15139 whole entry, the tested form may be a part): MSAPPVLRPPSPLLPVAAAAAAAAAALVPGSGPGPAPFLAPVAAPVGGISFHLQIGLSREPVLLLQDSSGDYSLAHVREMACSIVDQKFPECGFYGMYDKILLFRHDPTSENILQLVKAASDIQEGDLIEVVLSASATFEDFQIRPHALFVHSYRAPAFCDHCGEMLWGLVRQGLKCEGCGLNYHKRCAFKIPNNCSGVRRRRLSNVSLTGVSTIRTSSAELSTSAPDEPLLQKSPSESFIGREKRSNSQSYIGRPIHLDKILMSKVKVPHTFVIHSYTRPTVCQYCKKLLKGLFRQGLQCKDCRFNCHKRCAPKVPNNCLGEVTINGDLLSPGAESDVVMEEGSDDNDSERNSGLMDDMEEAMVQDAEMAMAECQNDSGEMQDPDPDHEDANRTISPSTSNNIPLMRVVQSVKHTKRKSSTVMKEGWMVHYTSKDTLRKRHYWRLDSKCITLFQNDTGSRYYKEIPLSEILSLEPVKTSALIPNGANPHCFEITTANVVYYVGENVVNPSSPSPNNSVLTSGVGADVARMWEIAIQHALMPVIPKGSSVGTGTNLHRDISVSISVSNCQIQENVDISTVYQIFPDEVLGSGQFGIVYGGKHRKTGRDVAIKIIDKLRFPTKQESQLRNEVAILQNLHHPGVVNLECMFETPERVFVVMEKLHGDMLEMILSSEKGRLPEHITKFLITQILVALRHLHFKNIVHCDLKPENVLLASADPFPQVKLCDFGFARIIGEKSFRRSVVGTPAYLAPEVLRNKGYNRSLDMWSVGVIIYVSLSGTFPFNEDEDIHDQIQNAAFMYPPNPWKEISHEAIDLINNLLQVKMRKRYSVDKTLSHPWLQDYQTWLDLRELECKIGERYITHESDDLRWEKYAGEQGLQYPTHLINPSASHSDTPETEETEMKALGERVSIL
Procedure: Affinities were measured with a radioactive […]
The results of the biochemical binding assays with cellular binding assays were used to quantitatively investigate differences between conventional biochemical measurements of Ki values with this novel method for determination of Ki values in cellule.

Question: With `O=C(O)c1cc2cc(F)c(O)c(F)c2oc1=O` [Pacific Blue™] as the compound, how does the “phenol pKa” value [1] read?
Answer: 3.7

Question: Which results are given for `C/C(=C\c1csc(C)n1)[C@@H]1C[C@@H]2O[C@]2(C)CCC[C@H](C)[C@H](O)[C@@H](C)C(=O)C(C)(C)[C@@H](O)CC(=O)N1` [ixabepilone]?
Answer: Ki [2]: 7.6 ± 1.6 nM; Ki [3]: 10 nM

Question: With `CC(=O)O[C@H]1C(=O)[C@@]2(C)[C@H]([C@H](OC(=O)c3ccccc3)[C@]3(O)C[C@H](OC(=O)[C@H](O)[C@@H](NC(=O)c4ccccc4)c4ccccc4)C(C)=C1C3(C)C)[C@]1(OC(C)=O)CO[C@@H]1C[C@@H]2O` [paclitaxel] as the compound, how does the Kd [4] read?
Answer: 120 nM

Question: What about the Ki [5] of the same compound?
Answer: 19 nM and 27 nM and 31 nM

Question: And the fluorescent microtubule phenotype [6]?
Answer: increased numbers of microtubule fibers

Question: And the “decrease of apparent affinity vs incubation for 3 h or 4 h” value ([3]; incubation 1 h)?
Answer: 3 fold

Question: What about the “decrease of apparent affinity vs incubation for 3 h or 4 h” value ([3]; incubation 2 h) of the same compound?
Answer: 2 fold

Question: And the “underestimation of cellular Ki” value ([3]; probe concentration 3 μM)?
Answer: 12 fold

Question: What about the Ki [3] of the same compound?
Answer: 22 nM

Question: What about the “decrease of apparent affinity (cellular Ki) by ligand depletion” value ([3]; σ=15% (150 nM β-tubulin/well)) of the same compound?
Answer: 2.3 fold

Question: What about the “decrease of apparent affinity (cellular Ki) by ligand depletion” value ([3]; σ=30% (300 nM β-tubulin/well)) of the same compound?
Answer: 4.7 fold

Question: Which results are given for `CC1=C[C@H]2[C@@]3(O)[C@H](C)[C@@H](O)[C@]4(OC(=O)N(C)CCCCCCCCCCCCN(C)C(=O)c5cc6cc(F)c(O)c(F)c6oc5=O)[C@H]([C@@H]3C=C(CO)C[C@]2(O)C1=O)C4(C)C` [probe 33, (1aR,1bS,4aR,7aS,7bS,8R,9R,9aS)-4a,7b,9-trihydroxy-3-(hydroxymethyl)-1,1,6,8-tetramethyl-5-oxo-1,1a,1b,4,4a,5,7a,7b,8,9-decahydro-9aH-cyclopropa[3,4]benzo[1,2-e]azulen-9a-yl (12-(6,8-difluoro-7-hydroxy-N-methyl-2-oxo-2H-chromene-3-carboxamido)dodecyl)(methyl)carbamate]?
Answer: trafficking of PKCγ [7]: translocation of PKCγ to the plasma membrane; toxicity to HEK293 cells [8]: non-toxic; also recorded: no toxicity; IC50 [9]: ~12000 nM; half time (t1/2) of cellular fluorescence ([10]; 33 at 5 μM, room temperature): about 32 min; Kd ([10]; 90 min, 37° C., DMEM high glucose, 4% FBS, read-out: apparent Kd): 6400 nM; Kd [11]: 2700 nM; Ki ([12]; Ki for purified C1AB domain of PKD): 30 nM; Ki ([12]; read-out: Ki for purified C1AB domain of PKD): ~30 nM
